Test results: patent US4256883A, “Pyridoza prostacyclin analogues and N-oxides thereof” (Research Corporation, priority 1979, dated 1981)
“Also recorded” adds a separate entry of the source. Where two headings read alike, the source gives them in different places.

Assays:
[1] = system: isolated perfused cat coronary arteries; test: Effects on isolated perfused cat coronary arteries (perfusion pressure); settings: for Biological Activity: Cat Coronary Artery (in words): isolated perfused right coronary artery, 37° C., Krebs-Henseleit
Method: Effects of prostacyclin analogs on isolated perfused cat coronary arteries were measured as follows.
Cats of either sex (2.5-3.5 kg) were anesthetized with sodium pentobarbital (30 mg/kg) given intravenously. […] A 20-gauge stainless steel cannula was inserted into the right coronary artery via the coronary ostium. Distal to the cannula, approximately 1 cm of coronary artery was dissected free of surrounding tissue. The section of right coronary artery with the cannula in place was excised from the heart and immediately transferred to a constant flow perfusion apparatus.
The perfusion apparatus consists of a reservoir containing 20 ml of warm (37° C.) oxygenated (95% O2 +5% CO2) K-H solution which bathes the coronary artery and serves as recirculating perfusate. An increase in perfusion pressure indicates vasoconstriction, whereas a decrease in perfusion pressure signifies vasodilation. Following an initial 1 hr. equilibrium period, vascular responsiveness was established by adding 25 mM KCl. After washing with fresh K-H solution for 20-30 mins., the preparation achieved a relatively constant low basal tone. […] Fresh K-H dilutions of stock prostacyclin analog concentrations were added to the perfusate reservoir in 0.1-0.2 ml volumes.

[2] = system: human and rabbit citrated platelet-rich plasma; test: Effects on platelet aggregation (citrated platelet-rich plasma, chronolog aggregometer, 37°); assay type: cell-based; settings: for Biological Activity: Platelet Aggregation (in words): inhibition of aggregation induced by 2 uM ADP, human and rabbit platelet-rich plasma, 37°
Method: Effects of prostacyclin analogs on platelet aggregation were evaluated using human and rabbit citrated platelet-rich plasma in a chronolog aggregometer at 37°.

[3] = background; Bundy, Tetrahedron Letters, 1371 (1978); cited from earlier work
[4] = system: blood platelet aggregation; settings: background statement, cited from earlier work
blood vessels / arteries = settings: background statement; cited from earlier work
[5] = system: blood platelets and arteries; settings: prior-art analogues, comparison by inventors; cited from earlier work
[6] = Stability of free acid XXIV in aqueous solutions at 25° C.; assay type: physicochemical
Method: Free acid XXIV was stable in aqueous solutions at 25° C. for at least 30 days.

[7] = number in parentheses, not explained, natural prostacyclin = 1

## 6, 9-pyridaza prostacyclin, N-oxides [N-oxides XXV]
[1]
  Biological Activity: Cat Coronary Artery (in words): Small effect
other
  t1/2 Saline (25°): > 24 h
[2]
  Biological Activity: Platelet Aggregation (in words): Small effect

## 7,8-dihydro-6,9-pyridaza prostacyclin [XXIII]
[1]
  Biological Activity: Cat Coronary Artery (in words): Dilator (Potent)
[1]; [7]
  Biological Activity: Cat Coronary Artery, number in parentheses: 0.1
[2]
  Biological Activity: Platelet Aggregation (in words): Inhibitor (Potent)
[2]; [7]
  Biological Activity: Platelet Aggregation, number in parentheses: 0.1

## CCCCC[C@H](O)/C=C/[C@@H]1[C@H]2CC(CCCCC(=O)O)=N[C@H]2C[C@H]1O [IV]
[3]
  stability (in words): high stability
[4]
  effect on blood platelet aggregation (in words): potency in inhibiting platelet aggregation

## CCCCC[C@H](O)/C=C/[C@@H]1[C@H]2C/C(=C/CCCC(=O)O)O[C@H]2C[C@H]1O [Natural prostacyclin, 6,9α-oxido-11α,15α-dihydroxyprosta (Z)5, E(13)-dienoic acid]
[1]
  Biological Activity: Cat Coronary Artery (in words): Dilator (Potent)
Blood vessels / arteries
  effect on blood vessels / arteries (in words): powerful action as a dilator of blood vessels
t1/2 in saline at 25°
  half-life: 0.0333 h
[4]; listed as Prostacyclin
  effect on blood platelet aggregation (in words): most potent inhibitor of blood platelet aggregation of all the prostaglandins discovered to date
[4]; listed as prostacyclin
  effect on blood platelet aggregation (in words): destroys platelet aggregates after they have formed
[2]
  Biological Activity: Platelet Aggregation (in words): Inhibitor (Potent)

## CCCCC[C@H](O)/C=C/[C@H]1O[C@H]2C[C@H](O2)[C@@H]1C/C=C\CCCC(=O)O [Thromboxane A2]
Blood vessels / arteries
  effect on blood vessels / arteries (in words): powerful constrictor of arteries
[4]
  effect on blood platelet aggregation (in words): causes platelet aggregation

## CCCCC[C@H](O)/C=C/[C@@H]1[C@H]2CC(CCCCC(=O)O)O[C@H]2C[C@H]1O (stereo partly shown) [VI, dihydroprostacyclin]
[5]
  biological activity relative to prostacyclin (in words): somewhat less, active; also recorded: less biological activity

## CCCCC[C@H](O)/C=C/[C@@H]1[C@H]2CC(/C=C/CCC(=O)O)O[C@H]2C[C@H]1O (stereo partly shown) [VII, (4E)--isoprostacyclin]
[5]
  biological activity relative to prostacyclin (in words): somewhat less, active; also recorded: less biological activity

## CCCCC[C@H](O)/C=C/[C@@H]1[C@H]2CCC(CCCC(=O)O)=N[C@H]2C[C@H]1O [V]
[3]
  stability (in words): high stability
[4]
  effect on blood platelet aggregation (in words): potency in inhibiting platelet aggregation

## CCCCC[C@H](O)/C=C/[C@@H]1c2cc(CCCCC(=O)O)nnc2C[C@H]1O [XXIV, 6,9-pyridaza prostacyclin, free acid]
[1]
  Biological Activity: Cat Coronary Artery (in words): Dilator (Potent)
t1/2 in saline at 25°
  half-life: > 24 h
[6]
  Stability in aqueous solutions (stable for at least): at least 30 days
[2]
  Biological Activity: Platelet Aggregation (in words): Inhibitor (Potent)
